Laboratory results taken from PMC8308911, “Pharmacokinetic Study of Anti-osteoarthritic Compounds of a Standardized Fraction from Sphaeralcea Angustifolia” (Pharmaceuticals, 2021).
Where two headings read alike, the source gives them in different places.

Experiments:
[1] = Pharmacokinetics after single intravenous administration of the SaTSS standardized fraction (plasma, HPLC, PKSolver); format: in vivo, ICR mice; settings: for AUC(0-t): read-out: AUC0-60 (converted); for Vd: read-out: Vss
Method: Analyses of HPLC were carried out in a Waters system (2695 Separation module) coupled to a diode array detector (2996) with a 190–600-nm detection range and operated by the Manager Millennium software system (Empower 1; Waters Corporation, Mexico City, Mexico). Separations were performed in a Spherisorb-ODS RP-18 column (250 × 4.6 mm, 5 µm; Waters Corporation, Mexico) employing a constant temperature of 25 °C during the analyses. Samples (20 µL) were eluted at a 1.0 mL/min flow rate with a gradient of mobile phases of (A) high-purity H2O with trifluoroacetic acid to 0.5% v/v (TFA, Sigma-Aldrich, Mexico City, Mexico) and (B) high purity CH3CN, and compounds were detected by monitoring absorbance for tomentin and scopoletin at λ = 343 nm and for sphaeralcic acid at λ = 357 nm. The mobile phase was started with water (100%) and was maintained for 1 min, then solvent B was gradually incorporated at 5% (at 2 min), at 30% (at 4 min), and at 50% (at 16 min). During the next 4 min, solvent B was increased to 100%, and this proportion was maintained for 5 min. Finally, the following 3 min were utilized to return the mobile phase to the initial condition. […] Identification of scopoletin and tomentin as well as sphaeralcic acid was performed by comparing their retention times (tomentin—11.288 min, scopoletin—11.349 min, coumarin mixure—11.457 min, and sphaeralcic acid—23.319 min) and absorbance spectra.
The mice were previously anesthetized with sodium pentobarbital (PiSA Agropecuaria), then retro-orbital sinus blood was obtained using heparinized capillaries and distributed to heparinized tubes, and tubes were centrifuged at 3500 g for 7 min. The plasma obtained was transferred to new tubes and stored at −4 °C until use.
Plasma samples were extracted with CH3CN and TFA (w/v) 20% (1:1), then vials were centrifuged at 14,000 g for 10 min and the supernatant was transferred to another vial and left to dry at room temperature. The precipitate was resuspended with 1 mL of high-purity methanol (Merk, México) and filtered through Teflon membrane (13 mm, 0.45 µm, Life Science). Each filtered sample was injected into the HPLC equipment, and the concentrations of tomentin and scopoletin at λ = 343 nm and of sphaeralcic acid at λ = 357 nm were obtained by comparison with pre-built calibration curves.
To evaluate the suitability of the assay for the pharmacokinetic studies, 400 mg/kg of the active SaTSS fraction standardized in a mixture of tomentin and scopoletin (7.1 mg/400 mg), and sphaeralcic acid (34.6 mg/400 mg) was administered orally or intravenously to the mice. The dose of SaTSS fraction was chosen based on previous research of active compounds, as the median efective dose of each compound and detectable concentrations of them in the fraction. For oral pharmacokinetics, ten animals were used in each group at different times (0, 1.3, 3.3, 5, 10, 20, 40, 60, 80, 120, and 240 min). For intravenous pharmacokinetics, three animals were used in each group at different times (2, 4, 6, 8, 10, 15, 20, 30, and 60 min) Subsequently, the mice were anesthetized, retro-orbital sinus blood was obtained, plasma samples were extracted with CH3CN and TFA (w/v) 20% (1:1), and the extracts were analyzed by HPLC for coumarin (tomentin and scopoletin) and sphaeralcic acid quantification. Pharmacokinetic calculations were performed using the observed data. All data were subsequently processed using the PKSolver add-in program for Microsoft Excel written in Visual Basic for Applications. All values obtained were expressed in mean ± Standard Deviation (SD). For the pharmacokinetic assay, the selection was made either from a one-compartment or from a two-compartment model, with the use of both the Akaike Information Criterion (AIC) and the Schwarz Criterion (SC). […]

[2] = Stability of the active compounds in mouse plasma under handling and storage conditions; settings: mice plasma
Method: The investigation presented here expected manipulation conditions during all of the sample storage and process periods, which included the stability data from the freeze/defrost, bench-top, autosampler, and long-term stability tests. For all stability studies, fresh QC samples were evaluated by using a freshly prepared standard curve for the measurements. The analyzed conditions were 0, 8, and 24 h at room temperature, 8 h at 4 °C, and 30 days at −70 °C. The concentrations obtained from all of the stability studies were compared with the fresh QC samples, and the percentage of concentration deviation was calculated.

[3] = ICR, mouse, plasma, iv, 400 mg/kg, intravenous 400 mg/kg SaTES fraction, One-Compartment Model
[4] = ICR, mouse, plasma, iv, 400 mg/kg, intravenous 400 mg/kg SaTES fraction, Two-Compartment Model
[5] = intravenous 400 mg/kg SaTES fraction, One-Compartment Model
[6] = intravenous 400 mg/kg SaTES fraction, Two-Compartment Model
[7] = intravenous 400 mg/kg SaTES fraction, Two-Compartment Model, 400 mg/kg
[8] = intravenous 400 mg/kg SaTES fraction, Two-Compartment Model, listed as Sphaeralcic Acid, 400 mg/kg
[9] = intravenous 400 mg/kg SaTES fraction, Two-Compartment Model, listed as sphaeralcic acid, 400 mg/kg
[10] = Autosampler (4 °C, 8 h), nominal 2.5 μg/mL
[11] = Autosampler (4 °C, 8 h), nominal 5 μg/mL
[12] = Autosampler (4 °C, 8 h), nominal 10 μg/mL
[13] = Long-term (−70 °C, 1 month), nominal 2.5 μg/mL
[14] = Long-term (−70 °C, 1 month), nominal 5 μg/mL
[15] = Long-term (−70 °C, 1 month), nominal 10 μg/mL
[16] = room temperature, 0 h, nominal 2.5 μg/mL
[17] = room temperature, 0 h, nominal 5 μg/mL
[18] = room temperature, 0 h, nominal 10 μg/mL
[19] = room temperature, 8 h, nominal 2.5 μg/mL
[20] = room temperature, 8 h, nominal 5 μg/mL
[21] = room temperature, 8 h, nominal 10 μg/mL
[22] = room temperature, 24 h, nominal 2.5 μg/mL
[23] = room temperature, 24 h, nominal 5 μg/mL
[24] = room temperature, 24 h, nominal 10 μg/mL

## COc1c(C)cc2c(C(C)C)cc(C(=O)O)c(O)c2c1O [Sphaeralcic acid, sphaeralcic acid]
[1]; [3]
  AUC(0-inf): 21300 ng·h/mL
  clearance: 27 mL/min/kg
  AUC(0-t): 18300 ng·h/mL
  Vd: 0.828 L/kg
[1]; ICR, mouse, plasma, iv, 400 mg/kg, intravenous 400 mg/kg SaTES fraction, One-Compartment Model, read-out: C0
  C0: 41700 ng/mL
[1]; ICR, mouse, plasma, iv, 400 mg/kg, intravenous 400 mg/kg SaTES fraction, One-Compartment Model, read-out: MRT (converted)
  MRT: 30.7 min
[1]; ICR, mouse, plasma, iv, 400 mg/kg, intravenous 400 mg/kg SaTES fraction, One-Compartment Model, read-out: t1/2
  half-life: 21.2 min
[1]; [4]
  AUC(0-inf): 20400 ng·h/mL
  clearance: 28 mL/min/kg
  AUC(0-t): 17700 ng·h/mL
  Vd: 0.826 L/kg
[1]; ICR, mouse, plasma, iv, 400 mg/kg, intravenous 400 mg/kg SaTES fraction, Two-Compartment Model, read-out: C0
  C0: 58500 ng/mL
[1]; ICR, mouse, plasma, iv, 400 mg/kg, intravenous 400 mg/kg SaTES fraction, Two-Compartment Model, read-out: MRT (converted)
  MRT: 29.3 min
[1]; ICR, mouse, plasma, iv, 400 mg/kg, intravenous 400 mg/kg SaTES fraction, Two-Compartment Model, read-out: t1/2β
  half-life: 20.6 min
[1]; ICR, mouse, plasma, intravenous single dose 400 mg/kg SaTES fraction, 2.0 min, n = 3
  concentration at 2 min: 40880 ± 210 ng/mL
[1]; ICR, mouse, plasma, intravenous single dose 400 mg/kg SaTES fraction, 4.0 min, n = 3
  concentration at 4 min: 36280 ± 110 ng/mL
[1]; ICR, mouse, plasma, intravenous single dose 400 mg/kg SaTES fraction, 6.0 min, n = 3
  concentration at 6 min: 33900 ± 240 ng/mL
[1]; ICR, mouse, plasma, intravenous single dose 400 mg/kg SaTES fraction, 8.0 min, n = 3
  concentration at 8 min: 31800 ± 750 ng/mL
[1]; ICR, mouse, plasma, intravenous single dose 400 mg/kg SaTES fraction, 10 min, n = 3
  concentration at 10 min: 28700 ± 650 ng/mL
[1]; ICR, mouse, plasma, intravenous single dose 400 mg/kg SaTES fraction, 15 min, n = 3
  concentration at 15 min: 24400 ± 330 ng/mL
[1]; ICR, mouse, plasma, intravenous single dose 400 mg/kg SaTES fraction, 20 min, n = 3
  concentration at 20 min: 21200 ± 510 ng/mL
[1]; ICR, mouse, plasma, intravenous single dose 400 mg/kg SaTES fraction, 30 min, n = 3
  concentration at 30 min: 15800 ± 570 ng/mL
[1]; ICR, mouse, plasma, intravenous single dose 400 mg/kg SaTES fraction, 60 min, n = 3
  concentration at 60 min: 3810 ± 90 ng/mL
[1]; [5]
  AUMC: 39,202.118 µg/mL*min^2
  V: 0.828 (mg)/(µg/mL)
  k10: 0.032 min⁻¹
[1]; intravenous 400 mg/kg SaTES fraction, One-Compartment Model, 400 mg/kg
  AUC0-inf ∞: 1278.978 µg·min/mL
[1]; [6]
  k10: 0.048 min⁻¹
  k12: 0.249 min⁻¹
  k21: 0.624 min⁻¹
  t1/2α: 0.781 min
  α: 0.88 min⁻¹
  β: 0.034 min⁻¹
[1]; [7]
  A (plasma concentration, central compartment): 18.03 µg/mL
  B (plasma concentration, peripheral compartment): 40.46 µg/mL
[1]; [8]
  A (plasma concentration, central compartment): 18.027 µg/mL
  AUMC: 35,880.304 µg/mL*min^2
  B (plasma concentration, peripheral compartment): 40.461 µg/mL
  C0: 58489 ng/mL
  MRT: 29.294 min
  V: 0.591 (mg)/(µg/mL)
[1]; [9]
  AUMC: 35,880.30 µg/mL*min^2
  V: 0.59 (mg)/(µg/mL)
[2]; [10]
  Accuracy Bias: −3.89%
  Observed Concentration: 2.40 ± 0.04 µg/mL
[2]; [11]
  Accuracy Bias: −1.69%
  Observed Concentration: 4.92 ± 0.08 µg/mL
[2]; [12]
  Accuracy Bias: −3.34%
  Observed Concentration: 9.67 ± 0.12 µg/mL
[2]; [13]
  Accuracy Bias: −4.82%
  Observed Concentration: 2.38 ± 0.08 µg/mL
[2]; [14]
  Accuracy Bias: −2.61%
  Observed Concentration: 4.87 ± 0.10 µg/mL
[2]; [15]
  Accuracy Bias: −3.50%
  Observed Concentration: 9.65 ± 0.08 µg/mL
[2]; [16]
  Accuracy Bias: −0.60%
  Observed Concentration: 2.48 ± 0.03 µg/mL
[2]; [17]
  Accuracy Bias: 0.17%
  Observed Concentration: 5.01 ± 0.06 µg/mL
[2]; [18]
  Accuracy Bias: −0.49%
  Observed Concentration: 9.95 ± 0.11 µg/mL
[2]; [19]
  Accuracy Bias: −9.98%
  Observed Concentration: 2.25 ± 0.13 µg/mL
[2]; [20]
  Accuracy Bias: −8.10%
  Observed Concentration: 4.59 ± 0.06 µg/mL
[2]; [21]
  Accuracy Bias: −6.48%
  Observed Concentration: 9.35 ± 0.11 µg/mL
[2]; [22]
  Accuracy Bias: −9.03%
  Observed Concentration: 2.27 ± 0.11 µg/mL
[2]; [23]
  Accuracy Bias: −8.73%
  Observed Concentration: 4.56 ± 0.10 µg/mL
[2]; [24]
  Accuracy Bias: −7.37%
  Observed Concentration: 9.26 ± 0.07 µg/mL
